Results from ChEMBL document CHEMBL1148021, “(Arylpiperazinyl)cyclohexylsufonamides: discovery of alpha(1a/1d)-selective adrenergic receptor antagonists for the treatment of Benign Prostatic Hyperplasia/Lower Urinary Tract Symptoms (BPH/LUTS)” (Bioorg Med Chem Lett, 2007).

Columns and labels:
[1] = target: D(2) dopamine receptor (Homo sapiens, UniProt P14416); assay: Binding affinity to human dopamine D2 receptor
[2] = target: T1, Alpha-1D adrenergic receptor (Homo sapiens, UniProt P25100); assay: Binding affinity to human cloned adrenergic Alpha-1D receptor
T1 sequence (P25100 whole entry): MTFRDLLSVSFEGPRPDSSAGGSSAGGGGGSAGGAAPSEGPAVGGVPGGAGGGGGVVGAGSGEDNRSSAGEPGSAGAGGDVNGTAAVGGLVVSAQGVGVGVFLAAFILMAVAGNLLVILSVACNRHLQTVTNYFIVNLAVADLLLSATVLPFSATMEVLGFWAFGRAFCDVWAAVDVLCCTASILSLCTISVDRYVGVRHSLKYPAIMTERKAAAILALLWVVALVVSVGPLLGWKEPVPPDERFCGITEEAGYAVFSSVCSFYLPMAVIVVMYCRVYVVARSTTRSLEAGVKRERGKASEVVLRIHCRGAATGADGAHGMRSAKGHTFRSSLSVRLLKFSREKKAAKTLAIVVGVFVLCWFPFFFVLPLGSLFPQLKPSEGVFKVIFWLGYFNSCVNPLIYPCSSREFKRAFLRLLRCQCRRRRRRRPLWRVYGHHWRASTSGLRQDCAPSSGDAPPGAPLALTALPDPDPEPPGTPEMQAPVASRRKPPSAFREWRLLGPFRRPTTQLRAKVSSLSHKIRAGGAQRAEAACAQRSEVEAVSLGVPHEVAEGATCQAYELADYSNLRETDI

[3] = target: T2, Alpha-1B adrenergic receptor (Homo sapiens, UniProt P35368); assay: Binding affinity to human cloned adrenergic alpha-1B receptor
T2 sequence (P35368 whole entry): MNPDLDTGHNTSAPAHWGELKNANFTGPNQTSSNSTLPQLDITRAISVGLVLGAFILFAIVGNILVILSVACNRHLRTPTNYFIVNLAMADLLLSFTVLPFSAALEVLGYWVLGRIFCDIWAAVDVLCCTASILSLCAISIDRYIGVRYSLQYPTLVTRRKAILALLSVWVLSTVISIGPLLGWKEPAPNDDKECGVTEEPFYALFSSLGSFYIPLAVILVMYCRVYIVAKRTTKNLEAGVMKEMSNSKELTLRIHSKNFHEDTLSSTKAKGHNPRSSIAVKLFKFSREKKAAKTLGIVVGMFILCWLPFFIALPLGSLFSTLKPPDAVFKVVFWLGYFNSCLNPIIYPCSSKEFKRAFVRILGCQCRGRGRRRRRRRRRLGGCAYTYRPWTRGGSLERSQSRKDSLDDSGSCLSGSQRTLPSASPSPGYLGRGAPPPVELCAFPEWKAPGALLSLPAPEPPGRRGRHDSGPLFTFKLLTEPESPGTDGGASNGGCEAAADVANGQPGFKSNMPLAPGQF

[4] = target: T3, Alpha-1A adrenergic receptor (Homo sapiens, UniProt P35348); assay: Binding affinity to human cloned adrenergic alpha-1A receptor
T3 sequence (P35348 whole entry): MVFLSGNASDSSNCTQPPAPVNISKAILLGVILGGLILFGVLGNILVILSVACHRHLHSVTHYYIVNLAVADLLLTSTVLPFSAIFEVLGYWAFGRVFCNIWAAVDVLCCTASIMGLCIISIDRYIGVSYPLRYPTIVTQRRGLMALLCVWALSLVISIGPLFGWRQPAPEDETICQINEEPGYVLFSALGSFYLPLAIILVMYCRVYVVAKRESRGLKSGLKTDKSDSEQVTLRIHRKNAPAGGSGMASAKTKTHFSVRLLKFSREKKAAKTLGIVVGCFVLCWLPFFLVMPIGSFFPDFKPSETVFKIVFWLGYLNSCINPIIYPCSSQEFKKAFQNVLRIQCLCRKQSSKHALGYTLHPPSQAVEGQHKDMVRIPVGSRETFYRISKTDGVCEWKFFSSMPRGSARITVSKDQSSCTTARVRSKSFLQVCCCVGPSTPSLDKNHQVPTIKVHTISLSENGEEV

D(2) dopamine receptor, sequence (P14416 whole entry): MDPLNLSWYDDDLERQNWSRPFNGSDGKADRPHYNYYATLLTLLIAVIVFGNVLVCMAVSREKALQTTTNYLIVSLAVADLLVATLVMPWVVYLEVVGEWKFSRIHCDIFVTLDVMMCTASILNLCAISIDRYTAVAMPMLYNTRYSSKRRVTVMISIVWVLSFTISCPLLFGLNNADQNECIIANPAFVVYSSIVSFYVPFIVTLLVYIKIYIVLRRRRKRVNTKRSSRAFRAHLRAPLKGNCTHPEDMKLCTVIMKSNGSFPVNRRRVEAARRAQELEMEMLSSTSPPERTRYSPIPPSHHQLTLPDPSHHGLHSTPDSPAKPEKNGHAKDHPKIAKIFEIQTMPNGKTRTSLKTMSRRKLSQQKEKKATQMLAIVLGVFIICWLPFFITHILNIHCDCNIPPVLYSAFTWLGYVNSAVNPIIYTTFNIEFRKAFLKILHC

CC(C)Oc1ccccc1N1CCN([C@H]2CC[C@@H](NS(=O)(=O)c3ccccc3[N+](=O)[O-])CC2)CC1
Ki [1]: 51 nM

CC(C)Oc1ccccc1N1CCN([C@H]2CC[C@H](NS(=O)(=O)c3ccccc3[N+](=O)[O-])CC2)CC1
Ki [1]: 86 nM

COc1ccncc1S(=O)(=O)N[C@H]1CC[C@@H](N2CCN(c3ccccc3OC(C)C)CC2)CC1
Ki [1]: 92 nM

CC(C)Oc1ccccc1N1CCN([C@H]2CC[C@@H](NS(=O)(=O)c3cnc(Cl)c(Br)c3)CC2)CC1
Ki [1]: 61 nM

CC(C)Oc1ccccc1N1CCN([C@H]2CC[C@@H](NS(=O)(=O)c3cccc(F)c3)CC2)CC1
Ki [1]: 74 nM

CC(C)Oc1ccccc1N1CCN([C@H]2CC[C@H](NS(=O)(=O)c3cccc(F)c3)CC2)CC1
Ki [1]: 64 nM

CC(C)Oc1ccccc1N1CCN([C@H]2CC[C@@H](NS(=O)(=O)c3cccc(Cl)c3F)CC2)CC1
Ki [2]: 6.2 nM
Ki [3]: 120 nM
Ki [1]: 198 nM

CC(C)Oc1ccccc1N1CCN([C@H]2CC[C@@H](NS(=O)(=O)c3ccc(Cl)cc3F)CC2)CC1
Ki [1]: 130 nM

CC(C)Oc1ccccc1N1CCN([C@H]2CC[C@H](NS(=O)(=O)c3cccc(C(F)(F)F)c3)CC2)CC1
Ki [1]: 39 nM

CC(C)Oc1ccccc1N1CCN([C@H]2CC[C@H](NS(=O)(=O)c3ccc(Cl)cc3F)CC2)CC1
Ki [1]: 42 nM

COc1ccc(S(=O)(=O)N[C@H]2CC[C@@H](N3CCN(c4ccccc4OCC4CC4)CC3)CC2)cc1OC
Ki [2]: 64 nM
Ki [3]: 364 nM
Ki [4]: 189 nM
Ki [1]: 123 nM

CC(C)Oc1ccccc1N1CCN([C@H]2CC[C@@H](NS(=O)(=O)c3cccc(C(F)(F)F)c3)CC2)CC1
Ki [1]: 118 nM

COc1ccc(C)cc1S(=O)(=O)N[C@H]1CC[C@H](N2CCN(c3ccccc3OC(C)C)CC2)CC1
Ki [1]: 50 nM

CC(C)Oc1ccccc1N1CCN([C@H]2CC[C@H](NS(=O)(=O)c3cnc(Cl)c(Br)c3)CC2)CC1
Ki [1]: 80 nM

COc1ccc(F)cc1S(=O)(=O)N[C@H]1CC[C@@H](N2CCN(c3ccccc3OC(C)C)CC2)CC1
Ki [1]: 173 nM

COc1ccc(Br)cc1S(=O)(=O)N[C@H]1CC[C@@H](N2CCN(c3ccccc3OC(C)C)CC2)CC1
Ki [1]: 37 nM

COc1ccc(OC)c(S(=O)(=O)N[C@H]2CC[C@H](N3CCN(c4ccccc4OC(C)C)CC3)CC2)c1
Ki [1]: 62 nM

COc1ccc(C(F)(F)F)cc1S(=O)(=O)N[C@H]1CC[C@@H](N2CCN(c3ccccc3OC(C)C)CC2)CC1
Ki [1]: 194 nM

COc1ccc(C(F)(F)F)cc1S(=O)(=O)N[C@H]1CC[C@H](N2CCN(c3ccccc3OC(C)C)CC2)CC1
Ki [2]: 15 nM
Ki [4]: 25 nM
Ki [1]: 1.9 nM

COc1ccc([N+](=O)[O-])cc1S(=O)(=O)N[C@H]1CC[C@H](N2CCN(c3ccccc3OC(C)C)CC2)CC1
Ki [1]: 18 nM

Cc1ccc(S(=O)(=O)N[C@H]2CC[C@@H](N3CCN(c4ccccc4OC(C)C)CC3)CC2)cc1Cl
Ki [4]: 11 nM
Ki [1]: 60 nM

COc1ccc(Cl)cc1S(=O)(=O)N[C@H]1CC[C@@H](N2CCN(c3ccccc3OCC3CC3)CC2)CC1
Ki [2]: 48 nM
Ki [3]: 601 nM
Ki [4]: 19 nM
Ki [1]: 588 nM

O=S(=O)(N[C@H]1CC[C@@H](N2CCN(c3ccccc3OCC3CC3)CC2)CC1)c1cc(Cl)ccc1F
Ki [2]: 44 nM
Ki [3]: 952 nM
Ki [4]: 36 nM
Ki [1]: 425 nM

COc1ccc(Cl)cc1S(=O)(=O)N[C@H]1CC[C@H](N2CCN(c3ccccc3OC(C)C)CC2)CC1
Ki [1]: 78 nM

Cc1ccc(S(=O)(=O)N[C@H]2CC[C@H](N3CCN(c4ccccc4OC(C)C)CC3)CC2)cc1Cl
Ki [1]: 52 nM

CC(C)Oc1ccccc1N1CCN([C@H]2CC[C@@H](NS(=O)(=O)Cc3ccccc3)CC2)CC1
Ki [1]: 24 nM

CC(C)Oc1ccccc1N1CCN([C@H]2CC[C@H](NS(=O)(=O)Cc3ccccc3)CC2)CC1
Ki [1]: 71 nM

CC(C)Oc1ccccc1N1CCN([C@H]2CC[C@H](NS(=O)(=O)c3ccccc3)CC2)CC1
Ki [1]: 34 nM

CC(C)Oc1ccccc1N1CCN([C@H]2CC[C@@H](NS(=O)(=O)c3ccccc3C#N)CC2)CC1
Ki [1]: 55 nM

CC(C)Oc1ccccc1N1CCN([C@H]2CC[C@H](NS(=O)(=O)c3ccccc3C#N)CC2)CC1
Ki [1]: 2.4 nM

CC(C)Oc1ccccc1N1CCN([C@H]2CC[C@H](NS(=O)(=O)c3ccccc3F)CC2)CC1
Ki [1]: 31 nM

CC(C)Oc1ccccc1N1CCN([C@H]2CC[C@@H](NS(=O)(=O)c3cccnc3)CC2)CC1
Ki [1]: 15 nM

CC(C)Oc1ccccc1N1CCN([C@H]2CC[C@@H](NS(=O)(=O)c3ccc(F)cc3)CC2)CC1
Ki [1]: 69 nM

CC(C)Oc1ccccc1N1CCN([C@H]2CC[C@@H](NS(=O)(=O)c3ccc(S(C)(=O)=O)cc3)CC2)CC1
Ki [1]: 122 nM

CC(C)Oc1ccccc1N1CCN([C@H]2CC[C@H](NS(=O)(=O)c3ccc(S(C)(=O)=O)cc3)CC2)CC1
Ki [1]: 14 nM

COc1ccc(S(=O)(=O)N[C@H]2CC[C@H](N3CCN(c4ccccc4OC(C)C)CC3)CC2)cc1OC
Ki [1]: 62 nM

CC(C)Oc1ccccc1N1CCN([C@H]2CC[C@@H](NS(=O)(=O)c3ccc(OC(F)(F)F)cc3)CC2)CC1
Ki [4]: 17 nM
Ki [1]: 430 nM

COc1ccc(OC)c(S(=O)(=O)N[C@H]2CC[C@@H](N3CCN(c4ccccc4OC(C)C)CC3)CC2)c1
Ki [2]: 5.1 nM
Ki [3]: 153 nM
Ki [1]: 81 nM

CC(C)Oc1ccccc1N1CCN([C@H]2CC[C@H](NS(=O)(=O)c3cccnc3)CC2)CC1
Ki [1]: 55 nM

COc1ccncc1S(=O)(=O)N[C@H]1CC[C@H](N2CCN(c3ccccc3OC(C)C)CC2)CC1
Ki [1]: 43 nM

CC(C)Oc1ccccc1N1CCN([C@H]2CC[C@@H](NS(=O)(=O)c3ccc(Cl)cc3Cl)CC2)CC1
Ki [1]: 42 nM

CC(C)Oc1ccccc1N1CCN([C@H]2CC[C@@H](NS(=O)(=O)c3ccccc3)CC2)CC1
Ki [1]: 191 nM

COc1ccc(F)cc1S(=O)(=O)N[C@H]1CC[C@H](N2CCN(c3ccccc3OC(C)C)CC2)CC1
Ki [1]: 139 nM

CC(C)Oc1ccccc1N1CCN([C@H]2CC[C@H](NS(=O)(=O)c3ccc(OC(F)(F)F)cc3)CC2)CC1
Ki [1]: 58 nM

CC(C)Oc1ccccc1N1CCN([C@H]2CC[C@H](NS(=O)(=O)c3ccc(Cl)cc3Cl)CC2)CC1
Ki [1]: 76 nM

CC(C)Oc1ccccc1N1CCN([C@H]2CC[C@H](NS(=O)(=O)c3cccc(Cl)c3F)CC2)CC1
Ki [1]: 271 nM

CC(C)Oc1ccccc1N1CCN([C@H]2CC[C@@H](NS(=O)(=O)c3cc(Cl)ccc3F)CC2)CC1
Ki [2]: 15 nM
Ki [3]: 1860 nM
Ki [4]: 45 nM
Ki [1]: 356 nM

CC(C)Oc1ccccc1N1CCN([C@H]2CC[C@@H](NS(=O)(=O)c3ccccc3F)CC2)CC1
Ki [2]: 2.4 nM
Ki [1]: 149 nM

CC(C)Oc1ccccc1N1CCN([C@H]2CC[C@H](NS(=O)(=O)c3ccc(F)cc3)CC2)CC1
Ki [1]: 27 nM

COc1ccc(Br)cc1S(=O)(=O)N[C@H]1CC[C@H](N2CCN(c3ccccc3OC(C)C)CC2)CC1
Ki [1]: 36 nM

COc1ccc([N+](=O)[O-])cc1S(=O)(=O)N[C@H]1CC[C@@H](N2CCN(c3ccccc3OC(C)C)CC2)CC1
Ki [1]: 45 nM

COc1ccc(Cl)cc1S(=O)(=O)N[C@H]1CC[C@@H](N2CCN(c3ccccc3OC(C)C)CC2)CC1 (stereo in doubt; form 1)
Ki [4]: 1 nM
Ki [1]: 101 nM

COc1ccc(S(=O)(=O)N[C@H]2CC[C@@H](N3CCN(c4ccccc4OC(C)C)CC3)CC2)cc1OC (stereo in doubt; form 1)
Ki [1]: 94 nM

COc1ccc(Cl)cc1S(=O)(=O)N[C@H]1CC[C@@H](N2CCN(c3ccccc3OC(C)C)CC2)CC1 (stereo in doubt; form 2)
Ki [3]: 399 nM
Ki [4]: 11 nM
Ki [1]: 259 nM

COc1ccc(S(=O)(=O)N[C@H]2CC[C@@H](N3CCN(c4ccccc4OC(C)C)CC3)CC2)cc1OC (stereo in doubt; form 2)
Ki [2]: 19 nM
Ki [3]: 112 nM
Ki [1]: 810 nM

CCOc1ccccc1OCCN[C@H](C)Cc1ccc(OC)c(S(N)(=O)=O)c1 [TAMSULOSIN]
Ki [2]: 0.2 nM
Ki [3]: 2 nM
